The subject of one test is AML cell line MOLM-13. As to the kind of experiment: Viability assay with small-molecule prodrugs, MOLM-13. Format: cell-based. The following applies: MOLM-13. Here is the method: (§1) For assays assessing cytotoxicity of β-lapachone versus small-molecule prodrugs, antibodies and ADCs, suspension cells were plated into 24-well plates at a density of 2.5 × 10^5 cells ml^−1 in 240 µl. Stocks of ADC or antibody in PBS were normalized to 12.5 µM. Serial dilutions of compound were made up in PBS. Then, 60 µl of each stock of either PBS or compound in PBS was added to the cells to achieve the desired final concentration. After the specified incubation time, toxicity was assessed by counting of live cells using the trypan blue exclusion method with a Countess II Automated Cell Counter (ThermoFisher Scientific) according to the manufacturer’s instructions. Cell viability was determined by dividing the average live cell number of treated wells by the average live cell number for control wells treated with PBS only. IC50 values were calculated using GraphPad Prism software. Note: for the assay performed over 96 h, 5% human serum was added to media instead of 10% fetal bovine serum, to limit non-specific antibody internalisation. This had little effect on ADC toxicity.

Another test relates to CD33+ HL-60 cells. As to the kind of experiment: Viability assay with small-molecule prodrugs and ADCs, HL-60. Format: cell-based, human. On the procedure:
as §1

The next test has as its system HL-60 cells. As to the kind of experiment: Lysosomal deacidification and inhibition assay. Format: cell-based, human. The following applies: HL-60. Here is the method: Assays to assess the effect of lysosomal activity on prodrugs were performed as follows: HL-60 cells were plated into 96-well plates at a concentration of 2.5 × 10^5 cells ml^−1 in 180 µl media. Cells were treated with 10 µl of a stock of NH4Cl in PBS (to obtain an in-plate concentration of 3 or 30 mM), 10 µl of a dilution of a DMSO stock of E64d in PBS (to obtain an in-plate concentration of 30 μM), PBS only or a dilution of DMSO in PBS. Cells were incubated for 30 min. Following this, 10 µl of a stock of test compound made by dilution of a DMSO stock into media was added. DMSO was present in-plate at a maximum of 0.2%. Cells were incubated overnight for 16 h. Following incubation, media was replaced with media containing CellTiter-Blue (Promega) in 1:4 dilution and the plates were incubated for 6 h. The fluorescence of the plates was recorded (excitation, 555 nm; emission, 585 nm; MiniMax i3x Reader, Molecular Devices). Cell viability was calculated by division of the fluorescence intensity of treated wells by that of the average fluorescence intensity of the relevant negative control wells.

The test system of another test is HEL cells. Briefly: Viability assay with ADCs, HEL, trypan blue exclusion. The class given is cell-based, human. The following applies: 96 h. On the procedure: as §1

As to `CC(C)C(NC(=O)OCc1ccccc1)C(=O)NC(CCCNC(N)=O)C(=O)Nc1ccc(CC2(O)C(=O)C3=C(OC(C)(C)CC3)c3ccccc32)cc1` (centres unmarked) [Compound 26], the “IC50 relative to 1 in MOLM-13” value with AML cell line MOLM-13 came to 10 fold. In addition, the “IC50 relative to 1 in HL-60” value with CD33+ HL-60 cells worked out at 10 fold. In addition, in the test with HL-60 cells, the “toxicity after lysosomal deacidification (NH4Cl) or inhibition (E64d)” value is “less toxic”.

B1: Gem-IgG1: native IgG1 antibody containing the variable region of gemtuzumab (antibody, chains of the INN, looked up, V domains shown)
VH: EVQLVQSGAEVKKPGSSVKVSCKASGYTITDSNIHWVRQAPGQSLEWIGYIYPYNGGTDYNQKFKNRATLTVDNPTNTAYMELSSLRSEDTAFYYCVNGNPWLAYWGQGTLVTVSS
VL: DIQLTQSPSTLSASVGDRVTITCRASESLDNYGIRFLTWFQQKPGKAPKLLMYAASNQGSGVPSRFSGSGSGTEFTLTISSLQPDDFATYYCQQTKEVPWSFGQGTKVEVK
modifications: IgG1
notes: native IgG1 antibody containing the variable region of gemtuzumab
For B1, in the test with HEL cells (2.5 µM), the “toxicity to HEL at 2.5 µM” value is reported as “no toxicity”. The “in vitro toxicity against HEL” value with HEL cells (live cell count) was “no apparent toxicity”.

(Values after publication PMC9252919, “Controlled masking and targeted release of redox-cycling ortho-quinones via a C–C bond-cleaving 1,6-elimination” (Nature Chemistry, 2022).)
